Assays:
[1] = tested on: T1, GOD (glucose oxidase) from G. gastrica; test: Michaelis-Menten initial rates; peroxidase / o-dianisidine assay, […] nm; assay type: biochemical, Goffeauzyma gastrica; conditions: 64 °C, 2 M CaCl2; glucose 0.006-11 mM; O2 as co-substrate
T1 construct: native extracellular enzyme purified from yeast culture supernatant (ammonium sulfate, Superdex 75); Mr 91,000 by SDS-PAGE

[2] = tested on: T2, ALP (alkaline phosphatase) from Dioszegia sp.; test: Michaelis-Menten initial rates; alkaline phosphatase assay kit, […] nm; assay type: biochemical; conditions: 47 °C, pH 9.0; pNPP 0.001-2 mM
T2 construct: native extracellular enzyme purified from yeast culture supernatant (ammonium sulfate, anion exchange); Mr 39,000 by SDS-PAGE

[3] = substrate: OC[C@H]1O[C@@](CO)(O[C@H]2O[C@H](CO)[C@@H](O)[C@H](O)[C@H]2O)[C@@H](O)[C@@H]1O; test: purified protein; assay type: biochemical, Hansenula anomala; conditions: 60 °C, pH 5.0, sucrose 1-100 mM

OC[C@H]1OC(O)[C@H](O)[C@@H](O)[C@@H]1O (stereo partly shown) [glucose]
Km [1]: 1600 µM

O=[N+]([O-])c1ccc(OP(=O)(O)O)cc1 [p-nitrophenylphosphate]
Km [2]: 590 µM

B1: Inv (invertase) from W. anomalus (Hansenula anomala) (protein)
chain: STEYLRPQIHLTPDQGWMNDPNGMFYDRKDKLWHVYFQHNPDKKSIWATPVTWGHSTSKDLLTWDYHGNALEPENDDEGIFSGSVVVDRNNTSGFFNDSTDPEQRIVAIYTNNAQLQTQEIAYSLDKGYSFIKYDQNPVINVNSSQQRDPKVLWHDESNQWIMVVAKTQEFKVQIYGSPDLKKWDLKSNFTSNGYLGFQYECPGLFKLPIENPLNDTVTSKWVLLLAINPGSPLGGSINEYFIGDFDGTTFHPDDGATRFMDIGKDFYAFQSFDNTEPEDGALGLAWASNWQYANTVPTENWRSSMSLVRNYTLKYVDVNPENYGLTLIQKPVYDTKETRLNETLKTLETINEYEVNDLKLDKSSFVATDFNTERNATGVFEFDLKFTQTDLKMGYSNMTTQFGLYIHSQTVKGSQETLQLVFDTLSTTWYIDRTTQHSFQRNSPVFTERISTYVEKIDTTDQGNVYTLYGVVDRNILELYFNDGSIAMTNTFFFREGKIPTSFEVVCDSEKSFITIDELSVRELARK
notes: native extracellular enzyme purified from yeast culture supernatant (ammonium sulfate, Superdex 200); Mr 101,000 by SDS-PAGE
Km [3]: 78600 µM
Vmax [3]: 99500 µM/min
